Consider five compounds from patent US20090048205A1, “COMBINATION THERAPY WITH SYNTHETIC TRITERPENOIDS AND GEMCITABINE” (priority 2007, published 2009).

In series [1] the test system is heme oxygenase-1 (HO-1). Conditions: at nanomolar concentrations; in vitro and in vivo; Liby et al. (2005); cited from earlier work.
Series [2] deals with T1, IKKb (Homo sapiens, UniProt O14920).
T1 sequence (O14920 1-756): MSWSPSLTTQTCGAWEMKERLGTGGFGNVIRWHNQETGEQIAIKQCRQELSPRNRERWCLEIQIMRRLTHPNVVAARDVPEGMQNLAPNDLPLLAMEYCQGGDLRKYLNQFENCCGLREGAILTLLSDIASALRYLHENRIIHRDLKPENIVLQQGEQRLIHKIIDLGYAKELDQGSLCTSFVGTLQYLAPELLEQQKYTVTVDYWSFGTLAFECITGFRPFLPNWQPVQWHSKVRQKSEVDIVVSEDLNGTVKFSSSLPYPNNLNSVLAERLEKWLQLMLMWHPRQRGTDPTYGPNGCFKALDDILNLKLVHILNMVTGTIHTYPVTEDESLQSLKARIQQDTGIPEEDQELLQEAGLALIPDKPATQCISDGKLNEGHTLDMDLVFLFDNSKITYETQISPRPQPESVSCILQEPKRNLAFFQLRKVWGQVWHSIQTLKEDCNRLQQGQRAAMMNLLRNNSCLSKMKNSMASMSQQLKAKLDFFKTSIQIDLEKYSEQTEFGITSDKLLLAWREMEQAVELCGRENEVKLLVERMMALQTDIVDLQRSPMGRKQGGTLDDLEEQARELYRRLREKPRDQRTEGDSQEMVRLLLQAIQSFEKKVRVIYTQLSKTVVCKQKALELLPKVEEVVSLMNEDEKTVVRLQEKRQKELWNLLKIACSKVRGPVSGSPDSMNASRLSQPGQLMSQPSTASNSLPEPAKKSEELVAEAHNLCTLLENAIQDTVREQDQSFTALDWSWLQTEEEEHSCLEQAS
Conditions: via binding to Cys179; cited from earlier work.

Series [3] relates to NF-κB. Conditions: human leukemia cell lines and patient samples; Shishodia et al. (2006); cited from earlier work.
The conditions of series [4]: monkeys, equivalent dosages orally in gelatin capsules; Form B versus Form A.
For series [5] the following is noted: cited from earlier work.
For series [6] the following is noted: mice; cited from earlier work.
The test system of series [7] is Stage IV pancreatic cancer. Conditions: compared with the combination; cited from earlier work.

For the compound `CC1(C)CC[C@]2(C(=O)O)CC[C@]3(C)[C@H](C(=O)C=C4[C@@]5(C)C=C(C#N)C(=O)C(C)(C)[C@@H]5CC[C@]43C)[C@@H]2C1` [CDDO, 2-cyano-3,12-dioxooleana-1,9(11)-dien-28-oic acid], the “Expression of heme oxygenase-1 (HO-1) enzyme” value in series [1] is recorded as “rapidly increase the expression”.
As for `CC1(C)CC[C@]2(C(=O)n3ccnc3)CC[C@]3(C)[C@H](C(=O)C=C4[C@@]5(C)C=C(C#N)C(=O)C(C)(C)[C@@H]5CC[C@]43C)[C@@H]2C1` [CDDO-Im], the “Inhibition of IKKb activity” value in series [2] was “direct inhibitors”. The “Expression of heme oxygenase-1 (HO-1) enzyme” value in series [1] is given as “rapidly increase the expression”.
Take `COC(=O)[C@]12CCC(C)(C)CC1C1C(=O)C=C3[C@@]4(C)C=C(C#N)C(=O)C(C)(C)[C@@H]4CC[C@@]3(C)[C@]1(C)CC2` (stereo partly shown) [CDDO-Me]: in series [2], the “Inhibition of IKKb activity” value is on record as “direct inhibitors”. For the same compound, the “Inhibition of constitutive and inducible NF-κB” value in series [3] is given as “potently inhibits”.
As for `COC(=O)[C@]12CCC(C)(C)C[C@H]1[C@H]1C(=O)C=C3[C@@]4(C)C=C(C#N)C(=O)C(C)(C)[C@@H]4CC[C@@]3(C)[C@]1(C)CC2` [Form B], in series [4], the Bioavailability result was “surprisingly better than that of Form A”.
Take `Nc1ccn([C@@H]2O[C@H](CO)[C@@H](O)C2(F)F)c(=O)n1` [gemcitabine, 2′,2′-difluoro-2′-deoxycytidine]: the Maximum administered dose in series [5] (humans) is on record as 1000 mg/m^2. For the same compound, the “Dose reported to be tolerated in patients” value in series [5] (prolonged infusion for up to 12 hours) was 10 mg/m^2/min. In addition, the Maximum tolerated dose in series [6] is on record as 300 mg/kg/dose. Also, the “Clinical activity of gemcitabine alone (historical)” value in series [7] is “has not produced this level of clinical activity”.
